Measured values taken from patent US11648254B2 (Kumquat Biosciences Inc., priority 2021, dated 2023).
Like-named read-outs stand apart in the source and are kept apart here.

Biological target: SOS1 (Homo sapiens (Human), UniProt Q07889)
Test: Ras-SOS interaction assay (HTRF)
Type: biochemical
Description: The ability of any compound of the present disclosure to reduce a Ras protein signaling output by, e.g., interfering or disrupting interaction (or binding) between SOS1 and a Ras protein can be assessed in vitro. For example, the equilibrium interaction of human SOS1 (hSOS1) with human wildtype Kras or K-Ras mutant (e.g., hK-Ras G12C mutant, or hK-RasG12C) can be assessed as a proxy or an indication for a subject compound's ability to inhibit SOS. Detection of such interaction is achieved by measuring homogenous time-resolved fluorescence resonance energy transfer (HTRF) from (i) a fluorescence resonance energy transfer (FRET) donor (e.g., antiGST-Europium) that is bound to GST-tagged K-RasG12C to (ii) a FRET acceptor (e.g., anti-6His-XL665) bound to a His-tagged hSOS1.
The assay buffer can contain 5 mM HEPES pH 7.4, 150 mM NaCl, 10 mM EDTA, 1 mM DTT, 0.05% BSA, 0.0025% (v/v) Igepal and 100 mM KF. A Ras working solution is prepared in assay buffer containing typically 10 nM of the protein construct (e.g., GST-tagged hK-RasG12C) and 2 nM of the FRET donor (e.g., antiGST-Eu(K) from Cisbio, France). A SOS1 working solution is prepared in assay buffer containing typically 10 nM of the protein construct (e.g., His-hSOS1) and 10 nM of the FRET acceptor (e.g., anti-6His-XL665 from Cisbio, France). An inhibitor control solution is prepared in assay buffer containing 10 nM of the FRET acceptor without the SOS1 protein.
A fixed reaction mixture with or without test compound is transferred into a 384-well plate. Ras working solution is added to all wells of the test plate. SOS1 working solution is added to all wells except for those that are subsequently filled the inhibitor control solution. After approximately 60 min incubation, the fluorescence is measured with a M1000Pro plate reader (Tecan) using HTRF detection (excitation 337 nm, emission 1: 620 nm, emission 2: 665 nm). Compounds are tested in duplicates at different concentrations (for example, 10 μM, 2.5 μM, 0.63 μM, 0.16 μM, 0.04 μM, 0.01 μM test compound). The ratiometric data (i.e., emission 2 divided by emission 1) is used to calculate IC50 values against SOS1 using GraphPad Prism (GraphPad software).

[1] = K-RasG13D utilized, read-out: IC50 inhibition of SOS
[2] = K-RasG13D, read-out: IC50 value against SOS1

SOS1, sequence (Q07889 564-1049): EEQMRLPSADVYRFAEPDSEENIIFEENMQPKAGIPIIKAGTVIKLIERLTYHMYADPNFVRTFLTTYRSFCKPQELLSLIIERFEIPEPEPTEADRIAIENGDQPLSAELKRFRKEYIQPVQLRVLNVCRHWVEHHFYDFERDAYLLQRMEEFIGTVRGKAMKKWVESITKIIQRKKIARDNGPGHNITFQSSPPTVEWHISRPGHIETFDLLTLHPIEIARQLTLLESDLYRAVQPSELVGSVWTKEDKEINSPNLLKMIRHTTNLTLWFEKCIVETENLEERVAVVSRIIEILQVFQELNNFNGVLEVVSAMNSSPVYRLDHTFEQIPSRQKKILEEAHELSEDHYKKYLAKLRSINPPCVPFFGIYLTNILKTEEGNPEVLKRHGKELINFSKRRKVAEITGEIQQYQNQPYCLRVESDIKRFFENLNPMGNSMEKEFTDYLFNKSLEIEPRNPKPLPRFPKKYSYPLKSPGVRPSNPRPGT

SMILES | IC50 [1] [nM] | IC50 [2] [nM]
Cc1nc(N[C@H](C)c2cccc(C(F)F)c2F)c2cc(C3(C#N)CC3)c(OC3CCOCC3)nc2n1 [Compound 403, (R)-1-(4-((1-(3-(difluoromethyl)-2-fluorophenyl)ethyl)amino)-2-methyl-7-((tetrahydro-2H-pyran-4-yl)oxy)pyrido [2,3-d]pyrimidin-6-yl)cyclopropane-1-carbonitrile] | 100 to 1000 | –
Cc1nc(N[C@H](C)c2cccc(C(F)F)c2F)c2cc(N3CCN(C(C)C)CC3)nnc2n1 [Compound 108, (R)—N-(1-(3-(difluoromethyl)-2-fluorophenyl)ethyl)-3-(4-isopropylpiperazin-1-yl)-7-methylpyrimido[4,5-c]pyridazin-5-amine] | < 100 | –
COc1nc2nc(CCN3CCC3)nc(N[C@H](C)c3cccc(C(F)(F)F)c3F)c2cc1C1(C#N)CC1 [Compound 426, (R)-1-(2-(2-(azetidin-1-yl)ethyl)-4-((1-(2-fluoro-3-(trifluoromethyl)phenyl)ethyl)amino)-7-methoxypyrido[2,3-d]pyrimidin-6-yl)cyclopropane-1-carbonitrile] | < 100 | –
Cc1nc(N[C@H](C)c2cccc(C(F)F)c2F)c2cc(C3(C(F)F)CC3)c(OC3COC3)nc2n1 [Compound 186, (R)—N-(1-(3-(difluoromethyl)-2-fluorophenyl)ethyl)-6-(1-(difluoromethyl)cyclopropyl)-2-methyl-7-(oxetan-3-yloxy)pyrido[2,3-d]pyrimidin-4-amine] | < 100 | –
COc1nc2nc(C)nc(N[C@H](C)c3cccc(C(F)(F)CCC4CN(C(=O)OC(C)(C)C)C4)c3F)c2cc1C1(C#N)CC1 [Compound 208, tert-butyl (R)-3-(3-(3-(1-((6-(1-cyanocyclopropyl)-7-methoxy-2-methylpyrido[2,3-d]pyrimidin-4-yl)amino)ethyl)-2-fluorophenyl)-3,3-difluoropropyl)azetidine-1-carboxylate] | 100 to 1000 | –
COc1nc2ncnc(N[C@H](C)c3cccc(C(F)(F)CO)c3F)c2cc1N1CCS(=O)(=O)CC1 [Compound 279, (R)-4-(4-((1-(3-(1,1-difluoro-2-hydroxyethyl)-2-fluorophenyl)ethyl)amino)-7-methoxypyrido[2,3-d]pyrimidin-6-yl)thiomorpholine 1,1-dioxide] | 100 to 1000 | –
COc1nc2nc(C)nc(N[C@H](C)c3cccc(C(F)(F)F)c3F)c2cc1N1CCN(C(=O)C2CN(C)CCO2)CC1 (stereo partly drawn) [Compound 311, (4-(4-(((R)-1-(2-fluoro-3-(trifluoromethyl)phenyl)ethyl)amino)-7-methoxy-2-methylpyrido[2,3-d]pyrimidin-6-yl)piperazin-1-yl)(4-methylmorpholin-2-yl)methanone] | 100 to 1000 | –
Cc1nc(N[C@H](C)c2cccc3c2OC(C)(C)C3(F)F)c2cc(N3CCN(C(C)C)CC3)c(OCC3COC3)nc2n1 [Compound 274, (R)—N-(1-(3,3-difluoro-2,2-dimethyl-2,3-dihydrobenzofuran-7-yl)ethyl)-6-(4-isopropylpiperazin-1-yl)-2-methyl-7-(oxetan-3-ylmethoxy)pyrido[2,3-d]pyrimidin-4-amine] | 100 to 1000 | –
COc1nc2nc(C)nc(N[C@H](C)c3cccc(C(F)(F)F)c3F)c2cc1N1CCN(C(=O)[C@H]2COCCO2)CC1 [Compound 310, ((R)-1,4-dioxan-2-yl)(4-(4-(((R)-1-(2-fluoro-3-(trifluoromethyl)phenyl)ethyl)amino)-7-methoxy-2-methylpyrido[2,3-d]pyrimidin-6-yl)piperazin-1-yl)methanone] | < 100 | –
COc1nc2ncnc(N[C@H](C)c3cccc(C(F)(F)F)c3F)c2cc1C1(C#N)CCN(C(C)C)CC1 [Compound 280, (R)-4-(4-((1-(2-fluoro-3-(trifluoromethyl)phenyl)ethyl)amino)-7-methoxypyrido[2,3-d]pyrimidin-6-yl)-1-isopropylpiperidine-4-carbonitrile] | 100 to 1000 | –
COc1nc2nc(C)nc(N[C@H](C)c3cccc(C(F)F)c3F)c2cc1C1(C#N)CCN(Cc2ccccc2)CC1 [Compound 140, (R)-1-benzyl-4-(4-((1-(3-(difluoromethyl)-2-fluorophenyl)ethyl)amino)-7-methoxy-2-methylpyrido[2,3-d]pyrimidin-6-yl)piperidine-4-carbonitrile] | 100 to 1000 | –
COc1nc2ncnc(N[C@H](C)c3cccc(C(F)(F)F)c3C)c2cc1C1CCN(C)CC1 [Compound 282, (R)-7-methoxy-N-(1-(2-methyl-3-(trifluoromethyl)phenyl)ethyl)-6-(1-methylpiperidin-4-yl)pyrido[2,3-d] pyrimidin-4-amine] | 100 to 1000 | –

Now from value to compound:

IC50 [1] [nM] | IC50 [2] [nM] | SMILES
< 100 | < 50 | COc1nc2nc(C)nc(N[C@H](C)c3cccc(C(F)(F)F)c3F)c2cc1N1CCN(C2CCOCC2)CC1 [Compound 290, (R)-N-(1-(2-fluoro-3-(trifluoromethyl)phenyl)ethyl)-7-methoxy-2-methyl-6-(4-(tetrahydro-2H-pyran-4-yl)piperazin-1-yl)pyrido[2,3-d]pyrimidin-4-amine]
< 100 | – | Cc1nc(N[C@H](C)c2cccc(C(F)F)c2F)c2cc(S(=O)(=O)C3CCN(C)CC3)c(C)nc2n1 [Compound 141, (R)-N-(1-(3-(difluoromethyl)-2-fluorophenyl)ethyl)-2,7-dimethyl-6-((1-methylpiperidin-4-yl)sulfonyl)pyrido[2,3-d]pyrimidin-4-amine]
< 100 | < 50 | COc1nc2nc(C)nc(N[C@H](C)c3cccc(C(F)F)c3F)c2cc1C1CCNCC1 [Compound 121, (R)—N-(1-(3-(difluoromethyl)-2-fluorophenyl)ethyl)-7-methoxy-2-methyl-6-(piperidin-4-yl)pyrido[2,3-d]pyrimidin-4-amine]
100 to 1000 | – | C[C@@H](Nc1ncnc2nc(OC3COC3)c(C3(C(F)F)CC3)cc12)c1cccc(C(F)F)c1F [Compound 408, (R)-N-(1-(3-(difluoromethyl)-2-fluorophenyl)ethyl)-6-(1-(difluoromethyl)cyclopropyl)-7-(oxetan-3-yloxy)pyrido[2,3-d]pyrimidin-4-amine]
100 to 1000 | – | COc1nc2ncnc(N[C@H](C)c3cccc(C(F)(F)F)c3F)c2cc1C1CCN(C)CC1 [Compound 281, (R)-N-(1-(2-fluoro-3-(trifluoromethyl)phenyl)ethyl)-7-methoxy-6-(1-methylpiperidin-4-yl)pyrido[2,3-d] pyrimidin-4-amine]
< 100 | < 50 | COc1nc2nc(CCN3CCC3)nc(N[C@H](C)c3cccc(C(C)(F)F)c3F)c2cc1C1(C#N)CC1 [Compound 425, (R)-1-(2-(2-(azetidin-1-yl)ethyl)-4-((1-(3-(1,1-difluoroethyl)-2-fluorophenyl)ethyl)amino)-7-methoxypyrido[2,3-d]pyrimidin-6-yl)cyclopropane-1-carbonitrile]
100 to 1000 | – | Cc1nc(N[C@H](C)c2cccc(C(F)F)c2F)c2cc(C3(C#N)CC3)c(NCC3COC3)nc2n1 [Compound 398, (R)-1-(4-((1-(3-(difluoromethyl)-2-fluorophenyl)ethyl)amino)-2-methyl-7-((oxetan-3-ylmethyl)amino)pyrido[2,3-d]pyrimidin-6-yl)cyclopropane-1-carbonitrile]
< 100 | – | COc1nc2nc(C)nc(N[C@H](C)c3cccc(C(F)F)c3F)c2cc1S(=O)(=O)N1CCN(C)CC1 [Compound 106, (R)—N-(1-(3-(difluoromethyl)-2-fluorophenyl)ethyl)-7-methoxy-2-methyl-6-((4-methylpiperazin-1-yl)sulfonyl)pyrido[2,3-d]pyrimidin-4-amine]
< 100 | < 50 | Cc1nc(N[C@H](C)c2cccc(C(F)F)c2F)c2cc(C3CCN(C)CC3)c(OC3COC3)nc2n1 [Compound 246, (R)-N-(1-(3-(difluoromethyl)-2-fluorophenyl)ethyl)-2-methyl-6-(1-methylpiperidin-4-yl)-7-(oxetan-3-yloxy)pyrido[2,3-d]pyrimidin-4-amine]
100 to 1000 | – | COc1nc2nc(N3CCC3)nc(N[C@H](C)c3cccc(C(F)F)c3F)c2cc1N1CCN(C(C)C)CC1 [Compound 168, (R)-2-(azetidin-1-yl)-N-(1-(3-(difluoromethyl)-2-fluorophenyl)ethyl)-6-(4-isopropylpiperazin-1-yl)-7-methoxypyrido[2,3-d]pyrimidin-4-amine]
< 100 | < 50 | COc1nc2nc(CCN3CCC3)nc(N[C@H](C)c3cccc(C(F)(F)F)c3C)c2cc1C1(C#N)CC1 [Compound 427, (R)-1-(2-(2-(azetidin-1-yl)ethyl)-7-methoxy-4-((1-(2-methyl-3-(trifluoromethyl)phenyl)ethyl)amino)pyrido[2,3-d]pyrimidin-6-yl) cyclopropane-1-carbonitrile]
